# Data as given in patent publication US12208071B2, “Glucagon receptor antagonists” (LIGAND PHARMACEUTICALS INCORPORATED, priority 2018, dated 2025).
# “Also recorded” adds a separate entry of the source.
# Experiments:
# Type in all cases: physicochemical
# [1] = Accelerated stability (ICH), 40° C./75% RH; conditions: for Appearance / Assay (anhydrous w/w %) / Chiral purity (area %) / Individual related substance (area %, w/w), RRT 0.46 / Individual related substance (area %, w/w), RRT 0.64 / Individual related substance (area %, w/w), RRT 1.26 / Purity (area %) / Total related substances (area %, w/w) / Water content (%) / XRPD: 40° C./75% RH
# Description: Polymorph Form A was manufactured under Good Manufacturing Practices (GMP)-compliant conditions at a scale of 1.26 kg. The container closure for the batch consisted of double-lined low density polyethylene bags placed inside fiberboard drums, and the batch was on ICH stability under storage conditions of 25° C./60% relative humidity (RH) and 40° C./75% RH. Long-term stability data through the 36-month interval and accelerated stability data through the 6-month interval are shown in Tables 2 and 3.
# Stability samples were tested according to the protocol (Table 5) and to the same specification as the drug substance. The available stability data for samples stored at 25° C./60% RH and 40° C./75% RH are summarized.
# [2] = pKa measurement (Sirius T3, pH-metric and UV-metric); conditions: pH-metric (MeOH, DMSO, Dioxane co-solvent) and UV-metric (DMSO) methods, pH 1.0 to pH 11.0
# Description: There are two methods available on the Sirius T3 for pKa measurement: potentiometric titration and spectroscopic (UV) titration.
# Potentiometric Titration Method is a method which works for any ionicable compound and its standard working range is pH 3.0 to pH 11.0. […] Where this cannot be achieved, the use of organic co-solvents to enhance the solubility is employed.
# Its available pH range is typically between 0.5 and 13.5. A compound concentration of 50 μM is typically used, i.e., ten fold lower than the pH-metric method. Co-solvent determination may also be performed when the assayed compounds remain insoluble under all other conditions.
# When co-solvent solutions had been employed by pH-metric method or UV-metric method, the psKa values are extrapolated to zero percent organic content using the Yasuda-Shedlovsky extrapolation procedure, which yields extrapolated aqueous pKa values and slope information which can be used to ascertain the acidic/basic characteristics of the ionisable groups.
# About 1 mg of Polymorph Form A was weighed into a sample vial, about 1.5 mL of co-solvent (60v % DMSO, 80v % MeOH or 60v % Dioxane) was added into the vial manually, then titrated with acid or base to obtain a psKa value with co-solvent and water, and extrapolated to get aqueous pKa value. Tables 7-9 below and FIGS. 7A-9B provide the results of pKa determination by pH metric method. […]
# [3] = Photostability / solid stability under light (5000 lux)
# Description: Photostability testing was conducted on Polymorph Form A at 1- and 2-week intervals under light conditions of 5000 lux with the sample held at room temperature. The samples were tested for appearance, purity (HPLC), total related substances (TRS), and XRPD. The only change observed in the photostability samples was a decrease in purity of 0.6% at the 1-week interval.
# About 3 mg Polymorph Form A was weighed in glass vials and samples stored under light condition (5000 lx) for 1 week and 2 weeks, separately. Another 20 mg testing compound was weighed in glass vials and the samples stored under light condition for 1 week and 2 weeks, separately. The original compound was stored at −20° C. as the control. The physical appearance, assay, total related substances (TRS) and XRPD pattern were checked at the end of the 1st week and the 2nd week.
# [4] = 5000 Lux, open container, 0 weeks
# [5] = 5000 Lux, open container, 1 week
# [6] = 5000 Lux, open container, 2 weeks
structure (smiles),measurement,setting,value
"Cc1cc(C)c(-c2ccc(NC(=O)[C@H](Cc3ccc(C(=O)NCCS(=O)(=O)[O-])cc3)c3ccc(-c4ccc(C(C)(C)C)cc4)cc3)cc2)c(C)c1.[Na+] [Polymorph Form A, Sodium (R)-2-(4-(2-(4′-(tert-butyl)-[1,1′-biphenyl]-4-yl)-3-oxo-3-((2′,4′,6′-trimethyl-[1,1′-biphenyl]-4-yl)amino)propyl)benzamido)ethane-1-sulfonate]",water content,"[1]; 40° C./75% RH after the 2-month interval, stabilized level",approximately 10%
same,Appearance,[1]; 0 months,White
same,Assay (anhydrous w/w %),[1]; 0 months,101.3 w/w %
same,Chiral purity (area %),[1]; 0 months,99.9 area %
same,"Individual related substance (area %, w/w), RRT 0.46",[1]; 0 months,"0.08 area %, w/w"
same,"Individual related substance (area %, w/w), RRT 0.64",[1]; 0 months,"0.12 area %, w/w"
same,"Individual related substance (area %, w/w), RRT 1.26",[1]; 0 months,"0.05 area %, w/w"
same,Purity (area %),[1]; 0 months,99.8 area %
same,"Total related substances (area %, w/w)",[1]; 0 months,"0.25 area %, w/w"
same,Water content (%),[1]; 0 months,2.1%
same,Appearance,[1]; 1 month,White
same,Assay (anhydrous w/w %),[1]; 1 month,102.0 w/w %
same,Chiral purity (area %),[1]; 1 month,99.8 area %
same,"Individual related substance (area %, w/w), RRT 0.46",[1]; 1 month,"0.08 area %, w/w"
same,"Individual related substance (area %, w/w), RRT 0.64",[1]; 1 month,"0.11 area %, w/w"
same,"Individual related substance (area %, w/w), RRT 1.26",[1]; 1 month,"0.05 area %, w/w"
same,Purity (area %),[1]; 1 month,99.8 area %
same,"Total related substances (area %, w/w)",[1]; 1 month,"0.24 area %, w/w"
same,Water content (%),[1]; 1 month,8.1%
same,Appearance,[1]; 2 months,White
same,Assay (anhydrous w/w %),[1]; 2 months,103.4 w/w %
same,Chiral purity (area %),[1]; 2 months,99.8 area %
same,"Individual related substance (area %, w/w), RRT 0.46",[1]; 2 months,"0.08 area %, w/w"
same,"Individual related substance (area %, w/w), RRT 0.64",[1]; 2 months,"0.12 area %, w/w"
same,"Individual related substance (area %, w/w), RRT 1.26",[1]; 2 months,"0.06 area %, w/w"
same,Purity (area %),[1]; 2 months,99.7 area %
same,"Total related substances (area %, w/w)",[1]; 2 months,"0.26 area %, w/w"
same,Water content (%),[1]; 2 months,9.8%
same,Appearance,[1]; 3 months,White
same,Assay (anhydrous w/w %),[1]; 3 months,103.4 w/w %
same,Chiral purity (area %),[1]; 3 months,100.0 area %
same,"Individual related substance (area %, w/w), RRT 0.46",[1]; 3 months,"0.08 area %, w/w"
same,"Individual related substance (area %, w/w), RRT 0.64",[1]; 3 months,"0.11 area %, w/w"
same,"Individual related substance (area %, w/w), RRT 1.26",[1]; 3 months,"0.05 area %, w/w"
same,Purity (area %),[1]; 3 months,99.8 area %
same,"Total related substances (area %, w/w)",[1]; 3 months,"0.24 area %, w/w"
same,Water content (%),[1]; 3 months,10.0%
same,XRPD,[1]; 3 months,Same form
same,Appearance,[1]; 6 months,White
same,Assay (anhydrous w/w %),[1]; 6 months,103.7 w/w %
same,Chiral purity (area %),[1]; 6 months,100.0 area %
same,"Individual related substance (area %, w/w), RRT 0.46",[1]; 6 months,"0.08 area %, w/w"
same,"Individual related substance (area %, w/w), RRT 0.64",[1]; 6 months,"0.12 area %, w/w"
same,"Individual related substance (area %, w/w), RRT 1.26",[1]; 6 months,"0.05 area %, w/w"
same,Purity (area %),[1]; 6 months,99.8 area %
same,"Total related substances (area %, w/w)",[1]; 6 months,"0.25 area %, w/w"
same,Water content (%),[1]; 6 months,10.0%
same,XRPD,[1]; 6 months,Same form
same,pKa,[2],could not be detected
same,Appearance,[3]; [4],White powder
same,Purity (area %),[3]; [4],99.8 area %
same,"Total related substances (area %, w/w)",[3]; [4],"0.25 area %, w/w"
same,Appearance,[3]; [5],White powder
same,Purity (area %),[3]; [5],99.2 area %
same,"Total related substances (area %, w/w)",[3]; [5],"0.25 area %, w/w"
same,XRPD,[3]; [5],Same form
same,Appearance,[3]; [6],White powder
same,Purity (area %),[3]; [6],99.2 area %
same,"Total related substances (area %, w/w)",[3]; [6],"0.25 area %, w/w"
same,XRPD,[3]; [6],Same form
same,stability under light condition (overall),"[3]; 5000 lux, 2 weeks",No significant changes; also recorded: No significant increase in TRS % or decrease in recovery %; also recorded: relatively stable
same,decrease in purity,"[3]; 5000 lux, room temperature, 1-week interval",0.6%
same,Appearance,"[3]; light (5000 lx), 1 week",white powder
same,TRS %,"[3]; light (5000 lx), 1 week",0.25%
same,XRPD pattern,"[3]; light (5000 lx), 1 week",Form A
same,Appearance,"[3]; light (5000 lx), 2 weeks",white powder
same,TRS %,"[3]; light (5000 lx), 2 weeks",0.25%
same,XRPD pattern,"[3]; light (5000 lx), 2 weeks",Form A
same,Appearance,"[3]; −20° C., 0 day (control)",white powder
same,TRS %,"[3]; −20° C., 0 day (control)",0.25%
same,XRPD pattern,"[3]; −20° C., 0 day (control)",Form A
